In patent publication US10239843B2 (CANCER RESEARCH TECHNOLOGY LIMITED, priority 2014, dated 2019):
Read-outs that look alike come from different tables or passages of the source.

What was measured:
PARG in HeLa cell line = experiment: PARG cell assay (PAR chain immunofluorescence after MMS); type: cell-based; details: HeLa cells
Description: This method is based on the detection of endogenous levels of poly (ADP) ribose chains present in the nucleus of HeLa cell line using indirect immunofluorescence. MMS stimulation increases PAR chains for up to 25 mins. After that point, PARG is active and breaks down the PAR chains, until by one hour after stimulation no PAR chains are detectable. Inhibition of PARG maintains PAR chains.
Briefly, following compound treatment and treatment with the DNA damaging agent methylmethanesulfonate (MMS), the cell monolayer is fixed, then permeabilised and incubated with a mouse monoclonal antibody raised against multimers of poly(ADP) ribose.
At the end of the 1 h dosing period, MMS was added to duplicates at a final concentration of 50 μg/mL, for a further hour.
Media was tipped off and the cells fixed with 50 μL ice-cold 95% MetOH/PBS for 15 mins at −20° C. Following a PBS wash, 50 μL PBS/0.1% Triton was added to the cells for 20 mins. Following another PBS wash, anti-PAR antibody (Calbiochem AM80) was diluted 1:4000 in a buffer (PBS+0.5% FBS+0.05% Tween20) and added to the cells and incubated overnight at 4° C.
Cells were washed three times with PBS and the plate sealed with a light-proof seal.

Human Full Length PARG = Human Full Length PARG (Homo sapiens (Human), UniProt Q86W56); experiment: PARG enzyme assay (TR-FRET); type: biochemical; details: read-out: PARG Biochem IC50 Geomean
[1] = Homo sapiens, MMS 50 μg/mL, read-out: PARG Cell IC50 Geomean
[2] = MMS 50 μg/mL, read-out: PARG Cell IC50 Geomean
[3] = Homo sapiens, MMS treatment, read-out: PARG Cell IC50

Chain of Human Full Length PARG (Q86W56 whole entry): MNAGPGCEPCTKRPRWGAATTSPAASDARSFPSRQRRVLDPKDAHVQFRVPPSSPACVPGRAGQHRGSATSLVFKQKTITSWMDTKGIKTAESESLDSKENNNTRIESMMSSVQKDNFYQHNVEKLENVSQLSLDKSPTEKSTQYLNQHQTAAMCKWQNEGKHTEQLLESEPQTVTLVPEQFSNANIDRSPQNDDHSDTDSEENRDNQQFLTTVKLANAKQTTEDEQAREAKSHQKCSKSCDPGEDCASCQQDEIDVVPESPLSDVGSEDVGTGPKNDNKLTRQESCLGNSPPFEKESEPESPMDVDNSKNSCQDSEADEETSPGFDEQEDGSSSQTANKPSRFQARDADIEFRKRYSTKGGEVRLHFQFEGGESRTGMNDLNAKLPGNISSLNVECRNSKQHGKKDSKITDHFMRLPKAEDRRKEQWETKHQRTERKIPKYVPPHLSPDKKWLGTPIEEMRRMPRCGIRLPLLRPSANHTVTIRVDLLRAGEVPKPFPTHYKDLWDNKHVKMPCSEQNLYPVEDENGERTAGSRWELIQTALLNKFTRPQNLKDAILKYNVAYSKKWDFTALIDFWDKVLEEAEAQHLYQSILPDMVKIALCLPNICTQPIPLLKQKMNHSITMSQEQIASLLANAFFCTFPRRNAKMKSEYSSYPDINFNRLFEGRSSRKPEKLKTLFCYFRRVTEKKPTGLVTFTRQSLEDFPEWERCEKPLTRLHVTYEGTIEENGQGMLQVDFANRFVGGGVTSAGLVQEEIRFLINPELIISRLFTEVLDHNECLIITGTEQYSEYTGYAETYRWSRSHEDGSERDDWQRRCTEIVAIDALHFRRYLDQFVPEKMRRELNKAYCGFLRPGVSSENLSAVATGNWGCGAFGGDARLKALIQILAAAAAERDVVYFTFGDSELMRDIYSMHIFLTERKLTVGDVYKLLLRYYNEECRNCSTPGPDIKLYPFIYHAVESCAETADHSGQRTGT

Row | Compound | IC50 (PARG in HeLa cell line; MMS treatment, read-out: PARG Cell IC50) [nM] | IC50 (PARG in HeLa cell line; [1]) [nM] | IC50 (Human Full Length PARG) [nM] | IC50 (PARG in HeLa cell line; [2]) [nM] | IC50 (PARG in HeLa cell line; [3]) [nM]
1 | 1-[(2,5-Dimethylpyrazol-3-yl)methyl]-3-[(1-methylpyrazol-4-yl)methyl]-2,4-dioxo-N-[1-(trideuteriomethyl)cyclopropyl]quinazoline-6-sulfonamide [Example 490] | 70 | – | – | – | –
2 | Cn1c(=O)c2cc(S(=O)(=O)NC3(C)CC3)ccc2n(CC2CC2)c1=O [Example 23] | – | 519 | – | – | –
3 | CC1CC1Cn1c(=O)n(C)c(=O)c2cc(S(=O)(=O)NC3(C)CC3)ccc21 (centres unmarked) [Example 35] | – | 409 | 246 | – | –
4 | Cn1c(=O)c2cc(S(=O)(=O)NC3(C)CC3)ccc2n(CC2CC2(F)F)c1=O (centres unmarked) [Example 36] | – | 591 | – | – | –
5 | COc1ccc(Cn2c(=O)n(C)c(=O)c3cc(S(=O)(=O)NC4(C)CC4)ccc32)cc1 [Example 61] | – | 199 | 454 | – | –
6 | Cn1c(=O)c2cc(S(=O)(=O)NC3(C)CC3)ccc2n(Cc2ccccc2C#N)c1=O [Example 68] | – | 306 | 324 | – | –
7 | Cc1ncc(Cn2c(=O)c3cc(S(=O)(=O)NC4(C)CC4)ccc3n(C)c2=O)s1 [Example 109] | – | 288 | 483 | – | –
8 | Cc1noc(C)c1Cn1c(=O)c2cc(S(=O)(=O)NC3(C)CC3)ccc2n(C)c1=O [Example 115] | – | 386 | 616 | – | –
9 | Cc1ncc(Cn2c(=O)n(C)c(=O)c3cc(S(=O)(=O)NC4(C)CC4)ccc32)s1 [Example 126] | – | 214 | 240 | – | –
10 | Cc1cc(Cn2c(=O)n(C)c(=O)c3cc(S(=O)(=O)NC4(C)CC4)ccc32)n(C)n1 [Example 127] | – | 413 | 384 | – | –
11 | CCC#CCn1c(=O)n(C)c(=O)c2cc(S(=O)(=O)NC3(C)CC3)ccc21 [Example 137] | – | 608 | – | – | –
12 | Cn1c(=O)c2cc(S(=O)(=O)NC3(C)CC3)ccc2n(Cc2cncs2)c1=O [Example 143] | – | – | 342 | 538 | –
13 | Cn1c(=O)c2cc(S(=O)(=O)NC3(C)CC3)ccc2n(Cc2cnc(Cl)s2)c1=O [Example 145] | – | 342 | 151 | – | –
14 | Cn1nc(C(C)(C)C)cc1Cn1c(=O)n(C)c(=O)c2cc(S(=O)(=O)NC3(C)CC3)ccc21 [Example 149] | – | 518 | 293 | – | –
15 | Cn1cc(Cn2c(=O)n(C)c(=O)c3cc(S(=O)(=O)NC4(C)CC4)ccc32)cn1 [Example 152] | – | 520 | 463 | – | –
16 | Cc1ncc(Cn2c(OCC3CC3)nc3ccc(S(=O)(=O)NC4(C)CC4)cc3c2=O)s1 [Example 157] | – | 138 | 302 | – | –
17 | C#CCn1c(=O)n(Cc2c(C)noc2C)c(=O)c2cc(S(=O)(=O)NC3(C)CC3)ccc21 [Example 159] | – | 153 | 109 | – | –
18 | Cc1cc(COc2nc3ccc(S(=O)(=O)NC4(C)CC4)cc3c(=O)n2Cc2cnc(C)s2)n(C)n1 [Example 164] | – | – | 343 | 782 | –
19 | Cc1cc(Cn2c(=O)n(Cc3c(C)noc3C)c(=O)c3cc(S(=O)(=O)NC4(C)CC4)ccc32)n(C)n1 [Example 166] | – | 229 | 131 | – | –
20 | Cc1noc(C)c1Cn1c(=O)c2cc(S(=O)(=O)NC3(C)CC3)ccc2n(Cc2ccc(F)cc2)c1=O [Example 168] | – | 146 | 160 | – | –
21 | COc1cccc(Cn2c(=O)n(Cc3c(C)noc3C)c(=O)c3cc(S(=O)(=O)NC4(C)CC4)ccc32)c1 [Example 169] | – | – | 294 | 288 | –
22 | Cc1nc(C)c(Cn2c(=O)n(Cc3cnn(C)c3)c(=O)c3cc(S(=O)(=O)NC4(C)CC4)ccc32)s1 [Example 170] | – | 20 | 6 | – | –
23 | Cn1cc(Cn2c(=O)c3cc(S(=O)(=O)NC4(C)CC4)ccc3n(Cc3ccc(F)cc3)c2=O)cn1 [Example 171] | – | 103 | 49 | – | –
24 | COc1cccc(Cn2c(=O)n(Cc3cnn(C)c3)c(=O)c3cc(S(=O)(=O)NC4(C)CC4)ccc32)c1 [Example 172] | – | – | 100 | 193 | –
25 | Cn1cc(Cn2c(=O)c3cc(S(=O)(=O)NC4(C)CC4)ccc3n(CC3CC3)c2=O)cn1 [Example 174] | – | 56 | – | – | –
26 | Cc1ncc(Cn2c(=O)c3cc(S(=O)(=O)NC4(C)CC4)ccc3n(Cc3ccc(F)cc3)c2=O)s1 [Example 176] | – | 85 | 89 | – | –

Row | Compound | IC50 (PARG in HeLa cell line; MMS treatment, read-out: PARG Cell IC50) [nM] | IC50 (PARG in HeLa cell line; [1]) [nM] | IC50 (Human Full Length PARG) [nM] | IC50 (PARG in HeLa cell line; [2]) [nM] | IC50 (PARG in HeLa cell line; [3]) [nM]
27 | C#CCn1c(=O)n(Cc2cnn(C)c2)c(=O)c2cc(S(=O)(=O)NC3(C)CC3)ccc21 [Example 178] | – | 126 | 52 | – | –
28 | CCn1cc(Cn2c(=O)c3cc(S(=O)(=O)NC4(C)CC4)ccc3n(C)c2=O)cn1 [Example 181] | – | 680 | 447 | – | –
29 | Cn1c(=O)n(Cc2cn[nH]c2)c(=O)c2cc(S(=O)(=O)NC3(C)CC3)ccc21 [Example 183, 1-methyl-N-(1-methylcyclopropyl)-2,4-dioxo-3-(1H-pyrazol-4-ylmethyl)quinazoline-6-sulfonamide] | – | 931 | 379 | – | –
30 | CC1(NS(=O)(=O)c2ccc3c(c2)c(=O)n(CC#N)c(=O)n3Cc2ccc(F)cc2)CC1 [Example 186] | – | 307 | 441 | – | –
31 | COc1cccc(Cn2c(=O)n(CC#N)c(=O)c3cc(S(=O)(=O)NC4(C)CC4)ccc32)c1 [Example 187] | – | 343 | 467 | – | –
32 | Cc1cc(Cn2c(=O)n(CC#N)c(=O)c3cc(S(=O)(=O)NC4(C)CC4)ccc32)n(C)n1 [Example 192] | – | – | 274 | 1100 | –
33 | CC1(NS(=O)(=O)c2ccc3c(c2)c(=O)n(CC#N)c(=O)n3CC2CC2)CC1 [Example 193] | – | 556 | 277 | – | –
34 | C#CCn1c(=O)n(CC#N)c(=O)c2cc(S(=O)(=O)NC3(C)CC3)ccc21 [Example 194] | – | – | 245 | 273 | –
35 | Cc1cc(Cn2c(=O)c3cc(S(=O)(=O)NC4(C)CC4)ccc3n(CC3CC3)c2=O)on1 [Example 197] | – | 49 | 55 | – | –
36 | C#CCn1c(=O)n(Cc2cc(C)no2)c(=O)c2cc(S(=O)(=O)NC3(C)CC3)ccc21 [Example 198] | – | 76 | 105 | – | –
37 | Cc1cc(Cn2c(=O)c3cc(S(=O)(=O)NC4(C)CC4)ccc3n(Cc3ccc(F)cc3)c2=O)on1 [Example 199] | – | – | 92 | 99 | –
38 | COc1cccc(Cn2c(=O)n(Cc3cc(C)no3)c(=O)c3cc(S(=O)(=O)NC4(C)CC4)ccc32)c1 [Example 200] | – | 223 | 250 | – | –
39 | Cc1nc(C)c(Cn2c(=O)n(C)c(=O)c3cc(S(=O)(=O)NC4CC4)ccc32)s1 [Example 201] | – | 224 | 190 | – | –
40 | Cc1nc(C)c(Cn2c(=O)n(C)c(=O)c3cc(S(=O)(=O)NC4(C#N)CC4)ccc32)s1 [Example 204] | – | 646 | 118 | – | –
41 | Cc1cc(Cn2c(=O)c3cc(S(=O)(=O)NC4(C)CC4)ccc3n(Cc3cc(C)nn3C)c2=O)on1 [Example 207] | – | – | 38 | 116 | –
42 | Cc1cc(Cn2c(=O)c3cc(S(=O)(=O)NC4(C)CC4)ccc3n(Cc3cc(C)no3)c2=O)on1 [Example 208] | – | 69 | 36 | – | –
43 | Cc1cc(Cn2c(=O)n(C)c(=O)c3cc(S(=O)(=O)NC4(C)CC4)c(F)cc32)n(C)n1 [Example 213] | – | 787 | 473 | – | –
44 | Cn1c(=O)n(Cc2cnc(NC(=O)OC(C)(C)C)s2)c(=O)c2cc(S(=O)(=O)NC3(C)CC3)ccc21 [Example 214] | – | – | 411 | 3470 | –
45 | Cn1c(=O)n(Cc2cnn(CC#N)c2)c(=O)c2cc(S(=O)(=O)NC3(C)CC3)ccc21 [Example 217] | – | 529 | 365 | – | –
46 | Cc1cc(Cn2c(=O)c3cc(S(=O)(=O)NC4(C)CC4)ccc3n(CC3CC(C)(C)O3)c2=O)on1 (centres unmarked) [Example 352] | – | 608 | – | – | –
47 | Cn1cc(Cn2c(=O)c3cc(S(=O)(=O)NC4(C)CC4)ccc3n(CC3CN(C(=O)OC(C)(C)C)C3)c2=O)cn1 [Example 365] | – | 218 | – | – | –
48 | Cc1cc2cc(S(=O)(=O)NC3(C)CC3)ccc2n(CC2CC2)c1=O [Example 426, 1-(Cyclopropylmethyl)-3-methyl-N-(1-methylcyclopropyl)-2-oxo-quinoline-6-sulfonamide] | – | – | – | – | 1400
49 | Cn1cc(Cn2c(=O)[nH]c3ccc(S(=O)(=O)NC4(C)CC4)cc3c2=O)cn1 [Example 430, N-(1-Methylcyclopropyl)-3-[(1-methylpyrazol-4-yl)methyl]-2,4-dioxo-1H-quinazoline-6-sulfonamide] | – | – | – | – | 1080
50 | Cn1c(=O)n(Cc2ccno2)c(=O)c2cc(S(=O)(=O)NC3(CF)CC3)ccc21 [Example 513, N-[1-(Fluoromethyl)cyclopropyl]-3-(isoxazol-5-ylmethyl)-1-methyl-2,4-dioxo-quinazoline-6-sulfonamide] | – | – | – | – | 534
51 | Cc1cc(Cn2c(=O)c3cc(S(=O)(=O)NC4(CF)CC4)ccc3n(CCF)c2=O)on1 [Example 526, 1-(2-Fluoroethyl)-N-[1-(fluoromethyl)cyclopropyl]-3-[(3-methylisoxazol-5-yl)methyl]-2,4-dioxo-quinazoline-6-sulfonamide] | – | – | – | – | 133
52 | Cc1cc(Cn2c(=O)n(Cc3nnc(C)s3)c(=O)c3cc(S(=O)(=O)NC4(CF)CC4)ccc32)n(C)n1 [Example 603, 1-[(2,5-Dimethylpyrazol-3-yl)methyl]-N-[1-(fluoromethyl)cyclopropyl]-3-[(5-methyl-1,3,4-thiadiazol-2-yl)methyl]-2,4-dioxo-quinazoline-6-sulfonamide] | – | – | – | – | 496
